TGI and GI50 data for 20 compounds are collected here from PubChem BioAssay (NCI).

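A five-concentration, 48-hour dose response in 96-well plates underlies each endpoint, interpolated linearly between surrounding concentrations. The concentration for 50% growth inhibition is given as GI50. At the TGI there is no net growth.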

Holding throughout (assay): inhibition of tumour cell growth, NCI panel, 48 h
For test [1], the system named is SK-OV-3 ovarian.
Test [2] relates to TK-10 renal.
Test [3] deals with T-47D breast.
Test [4] concerns CAKI-1 renal.
For test [5], the system named is NCI-H23 lung.
Test [6] relates to HCT-116 colon.
Test [7] deals with EKVX NSCLC.
Test [8] deals with SK-MEL-28 melanoma.
Test [9] relates to HOP-92 NSCLC.
For test [10], the system named is HT29 colon.

`O=C1c2ccccc2C(=O)c2nn(N=P(CP(=Nn3nc4c(n3)C(=O)c3ccccc3C4=O)(c3ccccc3)c3ccccc3)(c3ccccc3)c3ccccc3)nc21`: the TGI in [1], in [2], in test [3], in test [4], in test [5] and in test [6] was > 100 µM in each case. The TGI in test [7], in test [8], in test [9] and in [10] was > 100 µM each time.
Take `Cc1cc2nc(-c3c(N)ncc(C#N)c3-c3ccc(Cl)cc3)[nH]c2cc1C`: the GI50 in [1] was 11.9 µM; in [2], 4.67 µM; in test [3], 4.63 µM; in test [4] it was 12.1 µM; in test [5], 8.1 µM; in [6] it was 3.47 µM. Further, the GI50 is 14.4 µM in [7], 5.8 µM in test [8], 0.275 µM in test [9] and 6.06 µM in test [10]. The TGI in [1] was 27.9 µM; in test [2], 21.3 µM; in [3], > 100 µM; in test [4], > 100 µM; in test [5], 30.7 µM; in test [6] it was 19.7 µM. The TGI in test [7] is 76.7 µM; in test [8], 40.2 µM; in test [9] it was 5.23 µM; in [10] it was > 100 µM.
As for `COC(=O)/C=C1\C(=O)C=C2[C@@H]3C[C@H]4C[C@H](CC[C@@]4(C)N21)C3(C)NC(C)=O` (stereo not given in full), the TGI in test [1] is 55.7 µM; in test [2], 33.9 µM; in test [3], > 27.8 µM; in test [4], 26.3 µM; in [5], > 60.6 µM; in test [6], 24 µM. Moreover, the TGI amounted to 30.6 µM in test [7], 11.2 µM in test [8], 47.5 µM in test [9] and 28.2 µM in [10].
`COc1ccc(OC)c(C[P+](c2ccccc2)(c2ccccc2)c2ccccc2)c1`: the TGI was 11 µM in test [1]; > 92.6 µM in [2]; > 90 µM in test [3]; 56 µM in [4]; 11.8 µM in test [5]; 14.4 µM in [6]. In addition, the TGI is > 94.6 µM in test [7], 18.8 µM in test [8], 4.39 µM in test [9] and 11.8 µM in [10].
Regarding `COC1(OC)C=CC(=O)C=C1`, the TGI in [1] is 26.3 µM; in test [2], 7.67 µM; in [3], 10.7 µM; in test [4], 11.6 µM; in test [5], 10.6 µM; in [6], 2.77 µM. For the same compound, the TGI was 21.9 µM in test [7], 4.16 µM in [8], 11 µM in test [9] and 12.1 µM in test [10].
As for `Cc1ccc(/C=N\NC(=O)c2ccncc2)s1`, the TGI in test [1], in [2], in test [3], in test [4], in test [5] and in test [6] was > 100 µM throughout. The TGI in test [7], in test [8], in test [9] and in test [10] was > 100 µM in each case.
As to `O=[N+]([O-])c1cc(F)ccc1Sc1ccccc1`, the TGI in [1], in test [2], in test [3], in [4], in test [5] and in test [6] was > 10 µM throughout. The TGI in [7], in test [8], in [9] and in test [10] was > 10 µM in each case.
For `COC(=O)c1cc(C)ccc1C1CN=NC12Cc1c(C)cc(C)cc1C2=O` (stereo not given), the TGI in [1] is 69 µM; in test [2], 82.5 µM; in test [3], > 100 µM; in test [4] it was > 100 µM; in test [5], 50.4 µM; in [6], 28.6 µM. Besides, the TGI is > 100 µM in test [7], > 100 µM in [8], 40.9 µM in [9] and 45.8 µM in test [10].
For `COc1ccccc1NC(=S)N/N=C/c1ccccn1`, the TGI was 34.8 µM in test [1]; > 46.4 µM in test [2]; 1.95 µM in [3]; 16.8 µM in test [4]; 6.01 µM in [5]; 0.639 µM in [6]. For the same compound, the TGI in test [7] was 5.08 µM; in test [8], > 46.4 µM; in test [9], 29 µM; in test [10], > 31.6 µM.
With `NC(=S)N/N=C1\CCCC1C(O)(C(F)(F)Cl)C(F)(F)Cl` (stereo not given), the TGI in test [1], in test [2], in [3], in test [4], in [5] and in test [6] was > 10 µM in each case. Moreover, the TGI in test [7], in [8], in test [9] and in test [10] was > 10 µM throughout.
On to `CCN(CC)C1Oc2cc3c(cc2C(c2cc(OC)c(OC)c(OC)c2)C1C)OCO3` (stereo not given), for which the TGI in test [1] is > 61.7 µM; in test [2] it was > 72.1 µM; in [3] it was > 88.7 µM; in [4], > 44.2 µM; in test [5] it was > 49 µM; in test [6] it was 13.4 µM. The TGI in test [7] was > 75.5 µM; in test [8], 34.3 µM; in test [9], 96.5 µM; in test [10], 9.95 µM.
For `COc1cc2c(c(OC)c1)C(=O)O[C@H](C)CCCC/C=C/C2`, the TGI in test [1] is > 100 µM; in [2] it was > 33.8 µM; in test [3] it was > 31.6 µM; in [4], 26.4 µM; in [5], > 100 µM; in test [6], 38.2 µM. For the same compound, the TGI in test [7] is 29.6 µM; in test [8], > 34.1 µM; in test [9], 25.7 µM; in [10] it was > 71.8 µM.
In the case of `O=c1[nH]c2cc([N+](=O)[O-])c(Nc3c4ccccc4nc4ccccc34)c([N+](=O)[O-])c2[nH]1`, the TGI in [1] was determined as 24.7 µM; in test [2], 6.85 µM; in [3], 8.83 µM; in [4] it was 7.96 µM; in [5], 16 µM; in test [6], 7.39 µM. Further, the TGI was 7.47 µM in test [7], 12.9 µM in test [8], 18.5 µM in test [9] and 9.33 µM in test [10].
As for `CC(=O)Nc1ccc(/C=C2/NC(=S)N(/C=C3\C(=O)Oc4ccccc4C3=O)C2=O)cc1`, the TGI in test [1], in test [2], in [3], in test [4], in test [5] and in test [6] was > 100 µM in each case. Besides, the TGI in [7], in test [8], in test [9] and in [10] was > 100 µM throughout.
As to `Cc1ccc(NC2=N/C(=C/c3ccco3)C(Cl)=N2)cc1`, the TGI in test [1], in [2], in test [3], in test [4], in test [5] and in test [6] was > 100 µM throughout. Besides, the TGI in test [7], in [8], in test [9] and in [10] was > 100 µM in each case.
`O=C(O)CCSC1=NCCN1`: the TGI in test [1], in test [2], in [3], in [4], in test [5] and in [6] was > 100 µM throughout. In addition, the TGI in [7], in [8], in [9] and in test [10] was > 100 µM throughout.
For `O=P(O)(O)C=C=C1CCCCC1`, the TGI in test [1], in test [2], in test [3], in test [4], in test [5] and in test [6] was > 100 µM each time. For the same compound, the TGI in [7], in test [8], in [9] and in test [10] was > 100 µM throughout.
In the case of `CNC(=O)N(CCC#N)CCCN(C(=O)N(C)C)c1ccccc1`, the TGI in test [1], in [2], in test [3], in test [4], in test [5] and in [6] was > 100 µM in each case. In addition, the TGI in test [7], in test [8], in test [9] and in test [10] was > 100 µM each time.
Consider `COc1ccc(C2SCC(=O)N2NC(=O)C(C)Oc2ccc(Cl)cc2Cl)cc1` (stereo not given), for which the TGI was > 100 µM in [1]; > 100 µM in [2]; > 100 µM in [3]; 47.3 µM in test [4]; > 100 µM in [5]; > 100 µM in [6]. Moreover, the TGI was > 100 µM in test [7], 96.3 µM in [8], 63.6 µM in test [9] and > 100 µM in test [10].
For the compound `COC(=O)C1CC23C=CCN4CC(C2C)C2(c5ccccc5NC12)C43` (stereo not given), the TGI in test [1], in [2], in test [3], in [4], in test [5] and in test [6] was > 100 µM in each case. For the same compound, the TGI in test [7], in [8], in [9] and in [10] was > 100 µM in each case.
